Source: PMC7938888, “Antidepressant drugs act by directly binding to TRKB neurotrophin receptors” (Cell, 2021)

Experiments:
TRKB.Y433F = molecular target: T1, TRKB.Y433F (Mus musculus, UniProt P15209, Y433F); experiment: Cell-free ligand binding assay, TRKB.Y433F mutant; conditions: tritiated imipramine, biotinylated R,R-HNK
T1 construct: wild-type GFP-tagged full length TRKB or the GFP-tagged Y433F TRKB mutant; host or cells: HEK293T
Experimental: (§1) The cell-free assays (binding assays) were performed in white 96-well plates, based on the protocol used for western-blotting or ELISA ([Baeza-Raja et al., 2016]; [Das et al., 2015]). The plates were precoated with anti-GFP, anti-FLAG, anti-TRK or anti-TRKB antibody (1:1000) in carbonate buffer (pH 9.8), ON at 4°C. Following blocking with 3% BSA in PBS buffer (2 h at RT), 120 ug of total protein from each sample (of lysates from HEK293T cells transfected to overexpress GFP-TRKB.wt or GFP-TRKB.Y433F) were added and incubated overnight at 4°C under agitation. […] The luminescence was determined via HRP-conjugated streptavidin (1:10000, 1h, RT) activity reaction with ECL by a plate reader. The luminescence signal from blank wells (containing all the reagents but the sample lystates, substituted by the blocking buffer) was used as background. The specific signal was then calculated by subtracting the values of blank wells from the values of the samples with matched concentration of the biotinylated ligand. For Figure 2E, the precipitated TRKB.wt or Y433F was incubated with tritiated imipramine (0-30μM) and the radioactive emission of the ligand was determined by scintillation (OptiPhase Supermix cocktail: #1200-439; MicroBeta2, Perkin-Elmer). The scintillation signal from blank wells was used as background, and the specific signal was then calculated by subtracting the values of blank wells from the values of the samples with matched concentration of the radioactive ligand.

TRKB:PLC-γ1 interaction = TRKB:PLC-γ1 interaction ELISA in cortical cells; format: cell-based, rat; conditions: rat cortical cells
Experimental: The TRKB:pY (phosphorylated TRKB), TRKB:PLC-γ1, PLC-γ1:pTRKB.Y816 interactions and were determined by ELISA, based on the general method described in literature ([Antila et al., 2014]; [Fred et al., 2019]), with minor adjustments. Briefly, white 96-well plates (OptiPlate 96F-HB, Perkin Elmer) were coated with capturing anti-TRKB or PLC-γ1 antibody (1:1000) in carbonate buffer (pH = 9.8) overnight (ON) at 4°C. Following a blocking step with 2%BSA in TBS-T (2 h, RT), samples were incubated ON at 4°C. The incubation with antibody against pTRKB.Y816, PLC-γ1 or pY (1:2000, ON, 4°C) was followed by HRP-conjugated anti-Rb IgG (1:5000, 2h, RT) or HRP-conjugated streptavidin (1:10000, 2h, RT). Finally, the chemiluminescent signal generated by the reaction with ECL was analyzed in a plate reader (Varioskan Flash, Thermo Scientific).

[1] = system: GluR1 subunit of AMPA receptors; experiment: Surface GluR1 ELISA in rat cortical cells; format: cell-based
Experimental: (§2) Briefly, the MG87.TRKB cells or primary cortical cells from rat or mouse embryos, cultivated in clear bottom 96-well plates (ViewPlate 96, Perkin Elmer), were washed with ice-cold PBS and fixed with 100μl of 4% PFA per well. […] Following washing, the samples were incubated with HRP-conjugated anti-goat or anti-rabbit IgG (1:5000 in blocking buffer) for 1h at RT. The cells were washed 4x with 200μl of PBS for 10 min each. Finally, the chemiluminescent signal generated by reaction with ECL was analyzed in a plate reader.

[2] = system: GluR1 subunit of AMPA receptors; experiment: Surface GluR1 ELISA in cortical cells of TRKB.Y433F mice; format: cell-based, mouse
Experimental: as §2

mice [3] = experiment: Ocular dominance plasticity (monocular deprivation, intrinsic signal imaging); format: in vivo, mouse
Experimental: The “transparent skull” preparation was executed as described in literature ([Steinzeig et al., 2017]). Briefly, adult female mice (20-22 weeks old) were anesthetized via i.p. injection with a mixture containing: 0.05 mg/kg fentanyl (Hameln, Germany); 5 mg/kg midazolam (Hameln, Germany); 0.5 mg/kg medetomidine (Orion Pharma, Finland); diluted in saline (B Braun, Germany). The animals’ eyes were covered with protective-gel (Alcon, UK). The animal’s head was shaved and disinfected with ethanol and Betadine. The mouse head was then fixed on the stereotaxic frame and the temperature was maintained at 37°C. A mixture of lidocaine and adrenaline (Orion Pharma, Finland) was applied locally on the head and the skin was cut with spring scissors. The incision area was restricted 2 mm above the bregma and caudal edge of intraparietal bone. The scalp was removed and a focused air stream and a cotton swab were used to clean and stop bleeding. The periosteum was gently scratched away from the skull with an eye scalpel and the temporal muscles were pushed aside, in order to expose enough space around the area of interest to attach the metal holder. When the skull was smooth, white and dry, fat was removed from the skull rapidly by passing on it a cotton swab soaked in acetone and the air current was used to avoid its penetration into the bone. Then, with a metal stick, a thin layer of cyanoacrylate glue (Loctite 401, Henkel, Germany) was applied to the surface of the skull, in order to make the skull transparent. After waiting 10 minutes for the glue to dry, a first layer of acryl was applied on the skull surface with a brush. Acryl was used to prolong the life of the transparency and was prepared by stirring acrylic powder (EUBECOS, Germany) with methacrylate liquid (Densply, Germany) until a nail-polish consistency was reached. After 30 minutes, a second layer of acryl was applied and was left to dry overnight. Finally, the animals were injected s.c. with 5 mg/kg Carprofen (ScanVet, Nord Ireland) for postoperative analgesia and i.p. with a wake-up composed by: 1.2 mg/kg Naloxone (Orpha-Devel Handels und Vertriebs GmbH, Austria), opioid receptor antagonist; 0.5 mg/kg Flumazenil (Hameln, Germany), GABA-A receptor antagonist; 2.5 mg/kg Atipamezole (Vet Medic animal Health Oy, Finland), adrenergic receptor antagonist; diluted in saline (B Braun, Germany). The next day, isoflurane at 4% was used for a couple of minutes to induce the anesthesia and then it was reduced at 2% for the procedure. The acryl layer was polished only on the area of interest, using a hand drill with a polishing bit. […]
Optical imaging. The saturation of haemoglobin in the primary visual cortex of the right hemisphere was measured to assess cortical activity ([Cang et al., 2005]; [Kalatsky and Stryker, 2003]). […]

mice [4] = experiment: Object location memory (OLM) test; format: in vivo, mouse; conditions: wild-type mice, R,R-HNK
Experimental: Object-location memory (OLM): this test was performed in a square arena (28cm side) with opaque walls containing cues (black stripes or spots). The adult male and female mice (18-22 weeks old) were placed for 3 consecutive days (15min per session) in the arena with two identical objects (table tennis balls glued to caps of 50ml Falcon tubes) in the same position throughout the sessions (pretest).

NMDA receptors = system: NMDA receptors; design: method as in Zanos et al., 2016, 2018; conditions: ref Zanos et al., 2016, 2018; cited from earlier work
TRKB [5] = molecular target: T2, TRKB (Mus musculus, UniProt P15209); experiment: Cell-free ligand binding assay on immobilised TRKB from HEK293T lysates; design: wild-type GFP-tagged full length TRKB or the GFP-tagged Y433F TRKB mutant; host or cells: HEK293T; conditions: biotinylated FLX 1 μM
Experimental: as §1

TRKB [6] = molecular target: T2, TRKB; experiment: as above; design: wild-type GFP-tagged full length TRKB or the GFP-tagged Y433F TRKB mutant; host or cells: HEK293T; conditions: biotinylated R,R-HNK (Figure 2E)

T2 sequence (P15209 32-821): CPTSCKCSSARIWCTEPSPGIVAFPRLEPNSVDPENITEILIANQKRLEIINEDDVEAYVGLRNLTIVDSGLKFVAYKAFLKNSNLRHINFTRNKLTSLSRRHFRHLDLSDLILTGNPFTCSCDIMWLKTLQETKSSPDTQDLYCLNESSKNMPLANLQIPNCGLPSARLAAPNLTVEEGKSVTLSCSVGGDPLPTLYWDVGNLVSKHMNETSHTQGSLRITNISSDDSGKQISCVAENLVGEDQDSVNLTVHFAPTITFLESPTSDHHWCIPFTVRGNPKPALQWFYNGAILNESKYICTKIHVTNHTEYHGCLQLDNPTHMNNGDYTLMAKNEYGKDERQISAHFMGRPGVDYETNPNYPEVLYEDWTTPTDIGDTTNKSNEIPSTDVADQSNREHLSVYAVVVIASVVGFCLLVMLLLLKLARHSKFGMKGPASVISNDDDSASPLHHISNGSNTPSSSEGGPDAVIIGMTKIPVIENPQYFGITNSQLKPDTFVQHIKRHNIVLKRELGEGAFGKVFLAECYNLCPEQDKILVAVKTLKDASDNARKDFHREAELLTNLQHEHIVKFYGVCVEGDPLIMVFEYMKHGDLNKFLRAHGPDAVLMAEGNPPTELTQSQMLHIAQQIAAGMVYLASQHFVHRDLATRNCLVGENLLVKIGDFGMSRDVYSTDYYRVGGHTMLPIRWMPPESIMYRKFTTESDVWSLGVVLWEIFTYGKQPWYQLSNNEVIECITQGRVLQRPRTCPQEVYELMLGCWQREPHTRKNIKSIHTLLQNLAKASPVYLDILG
T1 sequence (P15209 32-821 Y433F): as the sequence (P15209 32-821) above, with Y402F counted along it

N[C@@]1(c2ccccc2Cl)CCC[C@@H](O)C1=O [R,R-HNK, 2R,6R-hydroxynorketamine]
affinity to TRKB.Y433F compared with wild-type TRKB (TRKB.Y433F): much lower than to the wild-type TRKB
TRKB interaction with PLC-γ1 (TRKB:PLC-γ1 interaction): increased TRKB interaction with PLC-γ1
cell surface localization of GluR1 subunits of AMPA receptors [1]: increased cell surface localization of GluR1 subunits
increase in surface GluR1 in neurons from TRKB.Y433F mutant mice [2]: prevented
effect on shift in ocular dominance (mice [3]; TRKB.Y433F mice): lost
shift in ocular dominance after 7-day monocular deprivation (mice [3]; adult mice, 10 mg/kg i.p. every second day for 8 days): significant shift in OD
effect on shift in ocular dominance (mice [3]; wild-type mice co-treated with pravastatin): lost
object location memory (mice [4]): improved object location memory
affinity to NMDA receptors (NMDA receptors): low affinity
displacement of biotinylated FLX from TRKB (TRKB [5]): readily displaced
Ki (TRKB [5]; read-out: Ki for displacement of biotinylated FLX from TRKB): 2230 nM
Kd (TRKB [6]): 1820 nM
